Source: ChEMBL document CHEMBL1212694, “Discovery and characterization of a marine bacterial SAM-dependent chlorinase” (Nat Chem Biol, 2008)
Where a chain is given by its changes, count along the chain named. The source made the active and inactive calls. The calls are words filed in the database; no cut-off is given here.

Key:
[1] = system: Salinispora tropica CNB-440; assay: Activity at Salinispora tropica CNB-440 wild type recombinant SalL expressed in Escherichia coli BL21(DE3) assessed as formation of S-Adenosyl methionine after 30 mins by HPLC analysis
[2] = system: T1, Adenosyl-chloride synthase (Salinispora tropica (strain ATCC BAA-916 / DSM 44818 / CNB-440)), A4X3Q0 [Y70T]; assay: Activity at Salinispora tropica CNB-440 recombinant SalL Y70T mutant expressed in Escherichia coli BL21(DE3) after 30 mins by HPLC analysis relative to S-Adenosyl methionine
T1 sequence (whole entry): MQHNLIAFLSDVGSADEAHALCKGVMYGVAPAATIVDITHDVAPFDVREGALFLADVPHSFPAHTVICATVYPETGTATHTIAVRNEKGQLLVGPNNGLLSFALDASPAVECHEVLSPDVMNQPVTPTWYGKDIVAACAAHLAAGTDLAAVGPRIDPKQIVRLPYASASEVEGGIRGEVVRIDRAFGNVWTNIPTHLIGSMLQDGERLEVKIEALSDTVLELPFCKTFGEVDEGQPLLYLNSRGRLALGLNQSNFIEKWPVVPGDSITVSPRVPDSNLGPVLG

[3] = system: Salinispora tropica CNB-440; assay: Activity at Salinispora tropica CNB-440 wild type recombinant SalL expressed in Escherichia coli BL21(DE3) after 30 mins by HPLC analysis relative to S-Adenosyl methionine
[4] = system: T2, Adenosyl-chloride synthase (Salinispora tropica (strain ATCC BAA-916 / DSM 44818 / CNB-440)), A4X3Q0 [Y70T,G131S]; assay: Activity at Salinispora tropica CNB-440 recombinant SalL Y70T/G131S mutant expressed in Escherichia coli BL21(DE3) after 30 mins by HPLC analysis relative to S-Adenosyl methionine
T2 sequence (whole entry): T1 sequence (whole entry) with G131S

[5] = system: Salinispora tropica CNB-440; assay: Effect on Salinispora tropica CNB-440 wild type recombinant SalL expressed in Escherichia coli BL21(DE3)-mediated S-Adenosyl methionine formation after 30 mins by HPLC analysis
[6] = system: T3, Adenosyl-chloride synthase (Salinispora tropica (strain ATCC BAA-916 / DSM 44818 / CNB-440)), A4X3Q0 [W129F]; assay: Activity at Salinispora tropica CNB-440 recombinant SalL W129F mutant expressed in Escherichia coli BL21(DE3) after 30 mins by HPLC analysis relative to S-Adenosyl methionine
T3 sequence (whole entry): T1 sequence (whole entry) with T70Y, W129F

[7] = system: Salinispora tropica CNB-440; assay: Ratio of Kcat to Km for Salinispora tropica CNB-440 wild type recombinant SalL expressed in Escherichia coli BL21(DE3) for formation of S-Adenosyl methionine
[8] = system: Salinispora tropica CNB-440; assay: Activity at Salinispora tropica CNB-440 wild type recombinant SalL expressed in Escherichia coli BL21(DE3) after 30 mins by HPLC analysis
[9] = system: Salinispora tropica CNB-440; assay: Ratio of Kcat to Km for Salinispora tropica CNB-440 wild type recombinant SalL expressed in Escherichia coli BL21(DE3)

Compound `Nc1ncnc2c1ncn2[C@@H]1O[C@H](CCl)[C@@H](O)[C@H]1O` has an Activity [1] of 1300%, an Activity [2] of 1.1% and an Activity [3] of 100%. The Activity [4] was 2.5%, the Km [5] was 0.2 µM and the kcat [5] was 0.2 s⁻¹. The Activity [6] was 11% and the kcat/Km [7] was 1e+06 M⁻¹ s⁻¹.

For `CSCC[C@H](N)C(=O)O`, the Activity [1] was 1300%, the Km [5] was 2600 µM and the kcat [5] was 0.2 s⁻¹. It also gave a kcat/Km [7] of 76.7 M⁻¹ s⁻¹.

In the case of `Nc1ncnc2c1ncn2[C@@H]1O[C@H](CBr)[C@@H](O)[C@H]1O`, the Activity [1] is reported as “Active”, the Km [5] is reported as “Active” and the kcat [5] is reported as “Active”. For the same compound, the kcat/Km [7] was “Active”.

`Nc1ncnc2c1ncn2[C@@H]1O[C@H](CI)[C@@H](O)[C@H]1O` was tested, and the Activity [1] was 5560%, the Activity [2] was 1.4% and the Activity [3] was 100%. The Activity [4] was 0.8%, the Km [5] was 4.6 µM and the kcat [5] was 0.833 s⁻¹. It also gave an Activity [6] of 12% and a kcat/Km [7] of 181000 M⁻¹ s⁻¹.

`C[S+](CC[C@H](N)C(=O)[O-])C[C@H]1O[C@@H](n2cnc3c(N)ncnc32)[C@H](O)[C@@H]1O` (some centres not stated) showed a Km [8] of 1 µM, a kcat [8] of 0.015 s⁻¹ and a kcat/Km [9] of 15000 M⁻¹ s⁻¹.
